Laboratory results from ChEMBL document CHEMBL1151569, “Diphenylmethyl ethers: synthesis and histamine H3-receptor antagonist in vitro and in vivo activity” (Bioorg Med Chem Lett, 1996).

Columns and labels:
[1] = target: Histamine H2 receptor (Cavia porcellus) (UniProt P47747); experiment: In vitro antagonistic activity against histamine H2-receptor of guinea pig atrium; format: functional, tissue-based; conditions: Cardiac atrium
[2] = target: Histamine H3 receptor (Mus musculus) (UniProt P58406); experiment: In vivo antagonistic activity against histamine H3-receptor of Swiss mice brain after peroral administration; format: functional, organism-based
Histamine H3 receptor (Mus musculus), sequence (P58406 whole entry): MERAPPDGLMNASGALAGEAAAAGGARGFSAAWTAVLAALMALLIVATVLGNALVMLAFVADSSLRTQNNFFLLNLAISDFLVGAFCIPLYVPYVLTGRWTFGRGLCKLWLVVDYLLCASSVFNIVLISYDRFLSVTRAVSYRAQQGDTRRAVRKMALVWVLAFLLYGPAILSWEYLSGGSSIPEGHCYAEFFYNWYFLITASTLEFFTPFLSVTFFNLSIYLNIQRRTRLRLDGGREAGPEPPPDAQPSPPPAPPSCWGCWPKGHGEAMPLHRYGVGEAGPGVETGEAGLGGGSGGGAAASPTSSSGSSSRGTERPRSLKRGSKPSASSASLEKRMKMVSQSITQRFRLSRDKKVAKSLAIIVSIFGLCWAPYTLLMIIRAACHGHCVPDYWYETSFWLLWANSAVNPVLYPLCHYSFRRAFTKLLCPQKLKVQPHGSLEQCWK

Histamine H3 receptor = Histamine H3 receptor (Rattus norvegicus, UniProt Q9QYN8); experiment: In vitro antagonistic activity against histamine H3-receptor in an assay with K+-evoked depolarisation-induced release of [3H]histamine of synaptosomes of rat cerebral cortex; format: functional, subcellular, Brain
Histamine H3 receptor, sequence (Q9QYN8 whole entry): as the sequence (P58406 whole entry) above, with A15T, T286A, G290A, H387R, V389I counted along it

[3] = target: Histamine H1 receptor (Cavia porcellus) (UniProt P31389); experiment: In vitro antagonistic activity against histamine H1-receptor of guinea pig ileum; format: functional, tissue-based
Histamine H1 receptor (Cavia porcellus), sequence (P31389 whole entry): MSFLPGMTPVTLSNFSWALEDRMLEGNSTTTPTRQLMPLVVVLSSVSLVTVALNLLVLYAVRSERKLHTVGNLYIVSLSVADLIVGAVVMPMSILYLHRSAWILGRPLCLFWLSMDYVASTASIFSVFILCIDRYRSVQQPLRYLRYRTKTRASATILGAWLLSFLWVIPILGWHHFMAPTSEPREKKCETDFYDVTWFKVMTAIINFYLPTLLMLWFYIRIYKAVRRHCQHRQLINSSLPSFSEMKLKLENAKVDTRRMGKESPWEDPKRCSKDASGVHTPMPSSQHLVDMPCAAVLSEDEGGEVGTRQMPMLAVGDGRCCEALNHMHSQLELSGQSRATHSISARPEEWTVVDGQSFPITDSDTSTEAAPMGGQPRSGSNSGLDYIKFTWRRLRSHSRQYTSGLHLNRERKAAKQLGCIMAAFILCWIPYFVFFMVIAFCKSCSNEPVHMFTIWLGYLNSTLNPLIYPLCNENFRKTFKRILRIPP

Histamine H2 receptor (Cavia porcellus), sequence (P47747 whole entry): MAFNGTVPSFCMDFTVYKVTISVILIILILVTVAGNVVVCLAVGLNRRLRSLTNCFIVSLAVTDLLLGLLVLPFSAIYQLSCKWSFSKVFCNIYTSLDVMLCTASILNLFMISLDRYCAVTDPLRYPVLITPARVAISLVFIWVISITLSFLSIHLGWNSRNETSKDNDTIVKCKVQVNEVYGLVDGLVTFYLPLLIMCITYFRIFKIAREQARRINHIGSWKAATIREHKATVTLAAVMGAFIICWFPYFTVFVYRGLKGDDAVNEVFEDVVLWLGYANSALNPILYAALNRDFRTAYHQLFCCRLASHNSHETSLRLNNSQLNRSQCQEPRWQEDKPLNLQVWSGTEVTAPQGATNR

SMILES | -Log K [1] | ED50 [2] [mg/kg] | Ki (Histamine H3 receptor) [µM] | Kb [3] [µM]
c1ccc2c(COCCCc3c[nH]cn3)cccc2c1 | 4.9 | 3.2 | 0.02 | 
Fc1ccc(C(OCCCc2c[nH]cn2)c2ccccc2)cc1 (stereo not given) | 5.3 | 1.2 | 0.0251 | 
N=C(NCc1ccc(Cl)cc1)SCCCc1c[nH]cn1 | < 6 | 26 |  | > 1
Brc1ccc(C(OCCCc2c[nH]cn2)c2ccccc2)cc1 (stereo not given) | 5.4 | 3.6 | 0.126 | 
S=C(NC1CCCCC1)N1CCC(c2cnc[nH]2)CC1 | < 5 | 1 |  | > 100
c1ccc(COCCCc2c[nH]cn2)cc1 | 3.7 | > 10 | 0.02 | 20
Fc1ccc(C(OCCCc2c[nH]cn2)c2ccc(F)cc2)cc1 | 5.6 | 1.1 | 0.0251 | 
Clc1ccc(C(OCCCc2c[nH]cn2)c2ccccc2)cc1 (stereo not given) | 5.2 | 3.9 |  | 
c1ccc(C(OCCCc2c[nH]cn2)c2ccccc2)cc1 | 5.5 | 2.4 | 0.0251 | 0.501
FC(F)(F)c1ccc(C(OCCCc2c[nH]cn2)c2ccccc2)cc1 (stereo not given) |  | > 10 | 0.2 | 
